Columns and labels:
Assay in all cases: Competitive isoTOP-ABPP in situ (fragment-treated cells)
Format in all cases: cell-based
[1] = molecular target: cysteines in MDA-MB-231 and Ramos cells (Homo sapiens, UniProt Q14137); details: 200 μM, insitu, 231
[2] = molecular target: cysteines in MDA-MB-231 and Ramos cells (Homo sapiens, UniProt Q15118)
[3] = molecular target: T1, cysteines in MDA-MB-231 and Ramos cells (Homo sapiens, UniProt Q96P48); details: 200 μM, insitu, 231
T1 sequence (Q96P48 1-1450): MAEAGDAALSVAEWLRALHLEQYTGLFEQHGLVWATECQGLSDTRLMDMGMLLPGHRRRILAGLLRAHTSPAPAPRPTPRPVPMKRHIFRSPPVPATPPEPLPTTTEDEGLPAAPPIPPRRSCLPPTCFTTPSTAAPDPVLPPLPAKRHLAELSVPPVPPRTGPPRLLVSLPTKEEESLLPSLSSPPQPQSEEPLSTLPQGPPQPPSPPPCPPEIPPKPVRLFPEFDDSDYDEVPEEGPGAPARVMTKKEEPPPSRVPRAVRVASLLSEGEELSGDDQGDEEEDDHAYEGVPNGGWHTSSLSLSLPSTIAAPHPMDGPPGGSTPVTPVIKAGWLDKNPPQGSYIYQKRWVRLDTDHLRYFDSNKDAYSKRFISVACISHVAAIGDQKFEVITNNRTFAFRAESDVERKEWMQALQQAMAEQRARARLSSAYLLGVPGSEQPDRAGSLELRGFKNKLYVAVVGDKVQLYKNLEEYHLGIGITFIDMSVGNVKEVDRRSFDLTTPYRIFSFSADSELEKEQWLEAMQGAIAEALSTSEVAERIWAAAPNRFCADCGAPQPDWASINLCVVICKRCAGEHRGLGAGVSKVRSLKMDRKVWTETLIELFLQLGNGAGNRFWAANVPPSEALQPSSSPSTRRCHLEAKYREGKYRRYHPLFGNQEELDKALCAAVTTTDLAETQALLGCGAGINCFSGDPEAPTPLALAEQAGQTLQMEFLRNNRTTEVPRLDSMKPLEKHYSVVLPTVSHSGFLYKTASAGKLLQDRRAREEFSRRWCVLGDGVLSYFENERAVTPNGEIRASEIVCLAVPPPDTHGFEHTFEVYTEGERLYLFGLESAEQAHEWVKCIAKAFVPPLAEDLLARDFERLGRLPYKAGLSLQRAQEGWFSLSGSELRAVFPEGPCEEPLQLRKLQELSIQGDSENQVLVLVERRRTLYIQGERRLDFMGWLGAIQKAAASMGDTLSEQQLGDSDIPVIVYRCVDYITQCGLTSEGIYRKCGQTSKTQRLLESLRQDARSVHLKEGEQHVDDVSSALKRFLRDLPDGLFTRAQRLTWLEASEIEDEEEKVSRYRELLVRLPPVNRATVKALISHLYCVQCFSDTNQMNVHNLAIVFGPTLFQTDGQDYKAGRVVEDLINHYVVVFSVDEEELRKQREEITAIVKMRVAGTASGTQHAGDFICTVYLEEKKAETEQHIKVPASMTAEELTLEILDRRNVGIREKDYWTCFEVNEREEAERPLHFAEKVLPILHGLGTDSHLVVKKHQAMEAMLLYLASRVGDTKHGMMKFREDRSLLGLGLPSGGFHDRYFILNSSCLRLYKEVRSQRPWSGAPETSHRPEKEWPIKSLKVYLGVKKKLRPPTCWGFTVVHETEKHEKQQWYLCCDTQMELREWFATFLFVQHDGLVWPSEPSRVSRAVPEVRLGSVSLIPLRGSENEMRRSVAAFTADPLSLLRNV

[4] = molecular target: cysteines in MDA-MB-231 and Ramos cells (Homo sapiens, UniProt Q9Y676)
[5] = molecular target: cysteines in MDA-MB-231 and Ramos cells (Homo sapiens, UniProt Q00765)
Sequence of cysteines in MDA-MB-231 and Ramos cells (Homo sapiens, UniProt Q00765) (Q00765 whole entry): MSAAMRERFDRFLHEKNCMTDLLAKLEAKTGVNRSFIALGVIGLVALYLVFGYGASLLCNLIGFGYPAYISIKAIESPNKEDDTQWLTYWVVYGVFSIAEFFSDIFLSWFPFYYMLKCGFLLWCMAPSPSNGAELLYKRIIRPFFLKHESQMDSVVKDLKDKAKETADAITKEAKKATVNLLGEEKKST

[6] = molecular target: cysteines in MDA-MB-231 and Ramos cells (Homo sapiens, UniProt Q9Y6G9); details: 200 μM, insitu, 231
Sequence of cysteines in MDA-MB-231 and Ramos cells (Homo sapiens, UniProt Q9Y6G9) (Q9Y6G9 whole entry): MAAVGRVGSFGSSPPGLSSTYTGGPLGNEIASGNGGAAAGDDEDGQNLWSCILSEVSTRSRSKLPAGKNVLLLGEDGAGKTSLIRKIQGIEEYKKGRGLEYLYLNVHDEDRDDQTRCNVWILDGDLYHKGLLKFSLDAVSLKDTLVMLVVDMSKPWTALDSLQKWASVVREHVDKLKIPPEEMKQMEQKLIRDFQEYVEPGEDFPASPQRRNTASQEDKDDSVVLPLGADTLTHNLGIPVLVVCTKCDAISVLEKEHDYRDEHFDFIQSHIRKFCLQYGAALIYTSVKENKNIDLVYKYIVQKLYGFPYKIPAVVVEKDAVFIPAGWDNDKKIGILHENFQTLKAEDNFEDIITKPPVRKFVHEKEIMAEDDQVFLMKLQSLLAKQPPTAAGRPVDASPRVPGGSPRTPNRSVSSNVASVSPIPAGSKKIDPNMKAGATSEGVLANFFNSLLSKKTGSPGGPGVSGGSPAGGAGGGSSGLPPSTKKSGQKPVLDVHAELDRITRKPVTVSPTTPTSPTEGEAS

[7] = molecular target: T2, cysteines in MDA-MB-231 and Ramos cells (Homo sapiens, UniProt Q07065)
T2 sequence (Q07065 1-602): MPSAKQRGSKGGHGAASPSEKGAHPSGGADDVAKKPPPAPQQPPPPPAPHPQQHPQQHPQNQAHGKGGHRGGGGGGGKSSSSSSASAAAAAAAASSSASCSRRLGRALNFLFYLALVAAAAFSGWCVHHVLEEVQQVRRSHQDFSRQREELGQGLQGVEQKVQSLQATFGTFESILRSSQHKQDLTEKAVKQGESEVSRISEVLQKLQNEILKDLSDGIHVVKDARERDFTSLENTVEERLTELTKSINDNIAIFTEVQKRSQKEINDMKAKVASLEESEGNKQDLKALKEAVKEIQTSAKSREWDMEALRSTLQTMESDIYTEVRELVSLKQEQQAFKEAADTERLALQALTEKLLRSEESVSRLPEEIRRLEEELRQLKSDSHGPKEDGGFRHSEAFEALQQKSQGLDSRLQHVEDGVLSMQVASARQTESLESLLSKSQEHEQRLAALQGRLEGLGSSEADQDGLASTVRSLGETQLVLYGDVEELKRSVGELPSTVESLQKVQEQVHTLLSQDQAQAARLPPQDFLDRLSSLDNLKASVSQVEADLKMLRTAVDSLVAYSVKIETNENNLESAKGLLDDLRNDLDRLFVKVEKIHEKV

[8] = molecular target: T3, cysteines in MDA-MB-231 and Ramos cells (Homo sapiens, UniProt Q9NY27)
T3 sequence (Q9NY27 1-417): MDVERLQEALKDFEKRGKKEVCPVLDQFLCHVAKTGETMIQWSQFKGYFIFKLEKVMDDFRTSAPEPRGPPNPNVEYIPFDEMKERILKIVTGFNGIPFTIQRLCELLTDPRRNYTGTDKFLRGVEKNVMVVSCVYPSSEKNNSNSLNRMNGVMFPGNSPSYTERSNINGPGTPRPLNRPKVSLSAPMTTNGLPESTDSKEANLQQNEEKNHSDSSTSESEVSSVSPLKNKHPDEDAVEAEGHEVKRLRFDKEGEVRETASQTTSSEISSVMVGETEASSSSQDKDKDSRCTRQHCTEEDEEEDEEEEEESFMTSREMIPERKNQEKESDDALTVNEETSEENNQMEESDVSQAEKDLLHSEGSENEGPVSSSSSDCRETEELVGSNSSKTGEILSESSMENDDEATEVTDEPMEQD

Sequence of cysteines in MDA-MB-231 and Ramos cells (Homo sapiens, UniProt Q14137) (Q14137 whole entry): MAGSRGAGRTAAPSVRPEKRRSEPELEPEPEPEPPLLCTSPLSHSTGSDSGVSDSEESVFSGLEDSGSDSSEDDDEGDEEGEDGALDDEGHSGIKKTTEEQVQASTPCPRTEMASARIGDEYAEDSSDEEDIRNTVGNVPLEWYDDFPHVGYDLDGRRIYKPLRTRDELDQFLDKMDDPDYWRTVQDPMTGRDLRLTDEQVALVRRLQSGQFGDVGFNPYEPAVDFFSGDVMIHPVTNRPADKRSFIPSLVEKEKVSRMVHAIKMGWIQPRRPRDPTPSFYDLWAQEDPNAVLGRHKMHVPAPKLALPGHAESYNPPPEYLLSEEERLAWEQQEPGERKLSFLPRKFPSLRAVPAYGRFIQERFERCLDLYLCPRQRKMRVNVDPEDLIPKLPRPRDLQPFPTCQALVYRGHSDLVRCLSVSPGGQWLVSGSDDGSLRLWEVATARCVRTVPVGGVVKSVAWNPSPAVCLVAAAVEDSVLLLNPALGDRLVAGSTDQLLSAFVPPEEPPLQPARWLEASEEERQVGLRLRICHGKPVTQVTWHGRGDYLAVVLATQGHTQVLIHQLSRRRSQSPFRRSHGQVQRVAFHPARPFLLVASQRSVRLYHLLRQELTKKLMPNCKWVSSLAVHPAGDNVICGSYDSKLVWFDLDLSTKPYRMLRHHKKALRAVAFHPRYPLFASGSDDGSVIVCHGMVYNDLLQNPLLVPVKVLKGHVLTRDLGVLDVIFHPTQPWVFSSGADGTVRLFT
Sequence of cysteines in MDA-MB-231 and Ramos cells (Homo sapiens, UniProt Q15118) (Q15118 29-436): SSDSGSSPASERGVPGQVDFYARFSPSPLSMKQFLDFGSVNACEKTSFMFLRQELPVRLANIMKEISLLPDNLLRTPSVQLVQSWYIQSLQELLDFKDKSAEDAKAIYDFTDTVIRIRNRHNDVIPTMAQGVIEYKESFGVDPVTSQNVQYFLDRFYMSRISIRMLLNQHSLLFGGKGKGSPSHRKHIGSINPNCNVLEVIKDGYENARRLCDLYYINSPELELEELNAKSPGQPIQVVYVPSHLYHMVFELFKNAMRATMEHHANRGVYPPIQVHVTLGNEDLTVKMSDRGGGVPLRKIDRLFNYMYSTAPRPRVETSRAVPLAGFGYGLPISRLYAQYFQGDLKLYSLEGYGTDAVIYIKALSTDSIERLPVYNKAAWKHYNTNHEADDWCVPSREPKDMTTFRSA

isoTOP-ABPP ratio Q00765_C18 ([5]; 200 μM, insitu, 231) | isoTOP-ABPP ratio Q15118_C71 ([2]; 200 μM, insitu, 231) | isoTOP-ABPP ratio Q9Y676_C128 ([4]; 200 μM, insitu, 231) | isoTOP-ABPP ratio Q9Y6G9_C51 [6] | isoTOP-ABPP ratio, cysteine Q96P48_C900 [3] | SMILES | further results
4.2 | 18.0 | 2.9 | 4.9 | 1.8 | O=C(CCl)N1CCN(S(=O)(=O)c2ccccc2F)CC1 [compound 10] | isoTOP-ABPP ratio, cysteine Q14137_C404 [1]: 20.0; isoTOP-ABPP ratio Q15118_C71 ([2]; 200 μM, insitu, ramos): 2.7; isoTOP-ABPP ratio Q9NY27_C22 ([8]; 200 μM, insitu, ramos): 2.1
– | – | – | 0.7 | – | Cc1ccc(C=C(C#N)C(=O)NCCN2CCOCC2)cc1 [compound 41] | isoTOP-ABPP ratio Q07065_C100 ([7]; 200 μM, insitu, 231): 1.0; isoTOP-ABPP ratio Q96P48_C900 [3]: 0.5; isoTOP-ABPP ratio Q9NY27_C22 ([8]; 200 μM, insitu, 231): 0.8
– | – | – | 0.7 | – | COc1ccccc1OCCNC(=O)CCl [compound 28] | –

Second part, the compound before the results:

SMILES | isoTOP-ABPP ratio Q00765_C18 ([5]; 200 μM, insitu, 231) | isoTOP-ABPP ratio Q15118_C71 ([2]; 200 μM, insitu, 231) | isoTOP-ABPP ratio Q9Y676_C128 ([4]; 200 μM, insitu, 231) | isoTOP-ABPP ratio Q9Y6G9_C51 [6] | isoTOP-ABPP ratio, cysteine Q96P48_C900 [3] | further results
COc1ccc2c(c1)CCCN2C(=O)CCl [compound 2] | – | – | – | – | – | isoTOP-ABPP reactivity Q14137_C404 BOP1 [1]: 20.0; isoTOP-ABPP reactivity Q15118_C71 PDK1 ([2]; 200 μM, insitu, 231): 20.0; isoTOP-ABPP reactivity Q96P48_C900 ARAP1 [3]: 5.5; isoTOP-ABPP reactivity Q9Y676_C128 MRPS18B ([4]; 200 μM, insitu, 231): 10.2
CC(C)CCOCCNC(=O)CCl [compound 27] | 1.1 | 1.5 | 1.0 | 0.6 | – | isoTOP-ABPP ratio Q14137_C404 [1]: 0.6
O=C(CCl)NC(=O)NC12CC3CC(CC(C3)C1)C2 [compound 12] | 20.0 | – | 1.4 | 6.5 | 1.9 | isoTOP-ABPP ratio, cysteine Q07065_C100 ([7]; 200 μM, insitu, 231): 20.0; isoTOP-ABPP ratio Q9NY27_C22 ([8]; 200 μM, insitu, 231): 20.0
O=C(CCl)NC12CC3CC(CC(C3)C1)C2 [compound 21] | 0.7 | 1.7 | 1.5 | 0.6 | 0.7 | isoTOP-ABPP ratio, cysteine Q07065_C100 ([7]; 200 μM, insitu, 231): 2.2; isoTOP-ABPP ratio, cysteine Q14137_C404 [1]: 1.1
Cn1cc(S(=O)(=O)N2CCOCC2)cc1C(=O)NC(=O)CCl [compound 11] | – | – | – | – | – | isoTOP-ABPP ratio Q00765_C18 ([5]; 100 μM in situ 231): 0.8; isoTOP-ABPP ratio, cysteine Q07065_C100 ([7]; 100 μM in situ 231): 1.0; isoTOP-ABPP ratio Q15118_C71 ([2]; 100 μM in situ 231): 0.6; isoTOP-ABPP ratio Q9NY27_C22 ([8]; 100 μM in situ 231): 2.3; isoTOP-ABPP ratio Q9Y676_C128 ([4]; 100 μM in situ 231): 0.8

Source: patent US10670605B2, “Cysteine reactive probes and uses thereof” (The Scripps Research Institute, priority 2015, dated 2020)
